Measured values from patent publication US12522588B2, “Herbicidal compounds” (SYNGENTA CROP PROTECTION AG, priority 2020, dated 2026).

How the values were obtained:
Assay type in all cases: in vivo
[1] = system: Amaranthus retoflexus (AMARE); assay: Post-emergence test, glasshouse; details: 250 g/ha
Procedure: (§1) Seeds of a variety of test species are sown in standard soil in pots Amaranthus retoflexus (AMARE), Abutilon theophrasti (ABUTH), Setaria faberi (SETFA), Echinochloa crus-galli (ECHCG), Ipomoea hederacea (IPOHE)). After cultivation for one day (pre-emergence) or after 8 days cultivation (post-emergence) under controlled conditions in a glasshouse (at 24/16° C., day/night; 14 hours light; 65% humidity), the plants are sprayed with an aqueous spray solution derived from the formulation of the technical active ingredient in acetone/water (50:50) solution containing 0.5% Tween 20 (polyoxyethelyene sorbitan monolaurate, CAS RN 9005-64-5). Compounds are applied at 250 g/ha unless otherwise stated. The test plants are then grown in a glasshouse under controlled conditions in a glasshouse (at 24/16° C., day/night; 14 hours light; 65% humidity) and watered twice daily. After 13 days for pre and post-emergence, the test is evaluated for the percentage damage caused to the plant. The biological activities are shown in the following table on a five-point scale (5=81-100%; 4=61-80%; 3=41-60%; 2=21-40%; 1=0-20%).

[2] = system: Setaria faberi (SETFA); assay: Post-emergence test, glasshouse; details: 250 g/ha
Procedure: as §1

[3] = system: Ipomoea hederacea (IPOHE); assay: Post-emergence test, glasshouse; details: 250 g/ha
Procedure: as §1

[4] = system: Echinochloa crus-galli (ECHCG); assay: Post-emergence test, glasshouse; details: 250 g/ha
Procedure: as §1

[5] = system: Amaranthus retoflexus (AMARE); assay: Pre-emergence test, glasshouse; details: 250 g/ha
Procedure: as §1

[6] = system: Setaria faberi (SETFA); assay: Pre-emergence test, glasshouse; details: 250 g/ha
Procedure: as §1

[7] = system: Ipomoea hederacea (IPOHE); assay: Pre-emergence test, glasshouse; details: 250 g/ha
Procedure: as §1

[8] = system: Echinochloa crus-galli (ECHCG); assay: Pre-emergence test, glasshouse; details: 250 g/ha
Procedure: as §1

[9] = system: Abutilon theophrasti (ABUTH); assay: Post-emergence test, glasshouse; details: 250 g/ha
Procedure: as §1

[10] = system: Abutilon theophrasti (ABUTH); assay: Pre-emergence test, glasshouse; details: 250 g/ha; for percentage damage caused to the plant, ABUTH: evaluated after 13 days, Table B2; for percentage damage caused to the plant, LABUTH: comparative test
Procedure: as §1

[11] = evaluated after 13 days, Table B1
[12] = evaluated after 13 days, Table B2

Row | Structure (SMILES) | percentage damage caused to the plant, AMARE [1, 11] | percentage damage caused to the plant, SETFA [2, 11] | percentage damage caused to the plant, IPOHE [3, 11] | percentage damage caused to the plant, ECHCG [4, 11] | percentage damage caused to the plant, AMARE [5, 12] | percentage damage caused to the plant, SETFA [6, 12] | percentage damage caused to the plant, IPOHE [7, 12] | percentage damage caused to the plant, ECHCG [8, 12] | percentage damage caused to the plant, AMARE ([1]; comparative test) | percentage damage caused to the plant, ABUTH [9, 11] | percentage damage caused to the plant, ABUTH ([9]; comparative test) | percentage damage caused to the plant, SETFA ([2]; comparative test) | percentage damage caused to the plant, IPOHE ([3]; comparative test) | percentage damage caused to the plant, ECHCG ([4]; comparative test) | percentage damage caused to the plant, AMARE ([5]; comparative test) | percentage damage caused to the plant, ABUTH [10] | percentage damage caused to the plant, LABUTH [10] | percentage damage caused to the plant, SETFA ([6]; comparative test) | percentage damage caused to the plant, IPOHE ([7]; comparative test) | percentage damage caused to the plant, ECHCG ([8]; comparative test)
1 | Cc1ccc(-n2nc(C(F)(F)F)cc2Oc2ncc(Cl)cn2)cc1 [Compound 1.029] | 4 (4=61-80%) | 2 (2=21-40%) | 2 (2=21-40%) | 2 (2=21-40%) | 3 (3=41-60%) | 4 (4=61-80%) | 1 (1=0-20%) | 4 (4=61-80%) |  |  |  |  |  |  |  |  |  |  |  | 
2 | Cc1ncc(-n2nc(C(F)(F)F)cc2Oc2ncc(Cl)cn2)cn1 [Compound 1.022, 5-chloro-2-[2-(2-methylpyrimidin-5-yl)-5-(trifluoromethyl)pyrazol-3-yl]oxy-pyrimidine] | 5 (5=81-100%) | 4 (4=61-80%) | 1 (1=0-20%) | 4 (4=61-80%) | 5 (5=81-100%) | 5 (5=81-100%) | 1 (1=0-20%) | 4 (4=61-80%) |  |  |  |  |  |  |  |  |  |  |  | 
3 | FC(F)(F)c1cc(Oc2ncc(Cl)cn2)n(-c2ccc(Cl)cc2)n1 [Compound 1.002] | 5 (5=81-100%) | 5 (5=81-100%) | 4 (4=61-80%) | 5 (5=81-100%) | 5 (5=81-100%) | 5 (5=81-100%) | 1 (1=0-20%) | 5 (5=81-100%) | 5 (5=81-100%) | 3 (3=41-60%) | 3 (3=41-60%) | 5 (5=81-100%) | 4 (4=61-80%) | 5 (5=81-100%) | 5 (5=81-100%) | 2 (2=21-40%) | 2 (2=21-40%) | 5 (5=81-100%) | 1 (1=0-20%) | 5 (5=81-100%)
4 | Fc1ccccc1-n1nc(C(F)(F)F)cc1Oc1ncc(Cl)cn1 [Compound 1.033] | 3 (3=41-60%) | 1 (1=0-20%) | 1 (1=0-20%) | 1 (1=0-20%) | 2 (2=21-40%) | 1 (1=0-20%) | 1 (1=0-20%) | 1 (1=0-20%) |  |  |  |  |  |  |  |  |  |  |  | 
5 | FC(F)(F)c1ccc(-n2nc(C(F)(F)F)cc2Oc2ncc(Br)cn2)cc1 [Compound 1.036, 5-bromo-2-[5-(trifluoromethyl)-2-[4-(trifluoromethyl)phenyl]pyrazol-3-yl]oxy-pyrimidine] | 4 (4=61-80%) | 1 (1=0-20%) | 2 (2=21-40%) | 1 (1=0-20%) | 3 (3=41-60%) | 4 (4=61-80%) | 1 (1=0-20%) | 4 (4=61-80%) |  |  |  |  |  |  |  |  |  |  |  | 
6 | FC(F)(F)c1cccc(-n2nc(C(F)(F)F)cc2Oc2ncc(Cl)cn2)c1 [Compound 1.003] | 5 (5=81-100%) | 3 (3=41-60%) | 2 (2=21-40%) | 1 (1=0-20%) | 5 (5=81-100%) | 5 (5=81-100%) | 1 (1=0-20%) | 2 (2=21-40%) |  | 1 (1=0-20%) |  |  |  |  |  | 1 (1=0-20%) |  |  |  | 
7 | FC(F)Oc1ccc(-n2nc(C(F)(F)F)cc2Oc2ncc(Cl)cn2)cc1 [Compound 1.028] | 4 (4=61-80%) | 2 (2=21-40%) | 1 (1=0-20%) | 2 (2=21-40%) | 2 (2=21-40%) | 2 (2=21-40%) | 1 (1=0-20%) | 1 (1=0-20%) |  |  |  |  |  |  |  |  |  |  |  | 
8 | FC(F)(F)c1ccc(-n2nc(C(F)(F)F)cc2Oc2ncc(Cl)cn2)cc1 [Compound 1.001, 5-chloro-2-[5-(trifluoromethyl)-2-[4-(trifluoromethyl)phenyl]pyrazol-3-yl]oxy-pyrimidine] | 5 (5=81-100%) | 5 (5=81-100%) |  | 5 (5=81-100%) | 5 (5=81-100%) | 5 (5=81-100%) | 5 (5=81-100%) | 5 (5=81-100%) | 5 (5=81-100%) | 5 (5=81-100%) | 5 (5=81-100%) | 5 (5=81-100%) |  | 5 (5=81-100%) | 5 (5=81-100%) | 4 (4=61-80%) | 4 (4=61-80%) | 5 (5=81-100%) | 5 (5=81-100%) | 5 (5=81-100%)
9 | Cc1cc(Oc2ncc(Cl)cn2)n(-c2ccc(C(F)(F)F)cc2)n1 [Compound C1, reference compound] |  |  |  |  |  |  |  |  | 4 (4=61-80%) |  | 2 (2=21-40%) | 2 (2=21-40%) | 1 (1=0-20%) | 1 (1=0-20%) |  |  | 1 (1=0-20%) | 2 (2=21-40%) | 1 (1=0-20%) | 1 (1=0-20%)
10 | FC(F)c1cc(Oc2ncc(Cl)cn2)n(-c2ccc(C(F)(F)F)cc2)n1 [Compound 1.005] | 5 (5=81-100%) | 2 (2=21-40%) | 2 (2=21-40%) | 1 (1=0-20%) | 4 (4=61-80%) | 2 (2=21-40%) | 1 (1=0-20%) | 1 (1=0-20%) |  | 3 (3=41-60%) |  |  |  |  |  | 1 (1=0-20%) |  |  |  | 
11 | Fc1cnc(Oc2cc(C(F)(F)F)nn2-c2ccc(C(F)(F)F)cc2)nc1 [Compound 1.021] | 4 (4=61-80%) | 4 (4=61-80%) | 4 (4=61-80%) | 5 (5=81-100%) | 5 (5=81-100%) | 5 (5=81-100%) | 2 (2=21-40%) | 5 (5=81-100%) |  |  |  |  |  |  |  |  |  |  |  | 
12 | Cc1cc(Oc2ncc(Cl)cn2)n(-c2ccc(Cl)cc2)n1 [Compound C2, reference compound] |  |  |  |  |  |  |  |  | 3 (3=41-60%) |  | 1 (1=0-20%) | 2 (2=21-40%) | 1 (1=0-20%) | 2 (2=21-40%) | 1 (1=0-20%) |  | 1 (1=0-20%) | 1 (1=0-20%) | 1 (1=0-20%) | 1 (1=0-20%)
13 | Cc1cnc(Oc2cc(C(F)(F)F)nn2-c2ccc(C(F)(F)F)cc2)nc1 [Compound 1.020, 5-methyl-2-[5-(trifluoromethyl)-2-[4-(trifluoromethyl)phenyl]pyrazol-3-yl]oxy-pyrimidine] | 5 (5=81-100%) | 4 (4=61-80%) | 3 (3=41-60%) | 4 (4=61-80%) | 5 (5=81-100%) | 5 (5=81-100%) | 1 (1=0-20%) | 5 (5=81-100%) |  |  |  |  |  |  |  |  |  |  |  | 
